Reference: patent publication US20110245104A1, “Method for screening the sensitizing properties of chemical compounds” (priority 2010, published 2011)
“Also recorded” adds a separate entry of the source. Where two headings read alike, the source gives them in different places.

Assays:
[1] = system: Normal human epidermal keratinocytes (HEKn); assay: Keratinocyte blebbing response, light microscopy (Example 1)
Experimental: Normal human epidermal keratinocytes (HEKn, Cascade Biologics, Portland, Oreg., USA) were maintained in phenol red-free EpiLife keratinocyte medium (Cascade Biologics) supplemented with 60 μM CaCl2, the antibiotics gentamicin/amphotericin and 1% (v/v) human keratinocyte growth supplement (HKGS; Cascade Biologics). Alternatively, Medium 154 containing 200 μM CaCl2 supplemented with HKGS (1% (v/v), without antibiotics is used. Cells were grown at 37° C. in a humidified 5% CO2 incubator. Final concentrations of the components in the supplemented medium were: bovine pituitary extract, 0.2% v/v; bovine insulin, […]; hydrocortisone, […]; bovine transferrin, […]; human epidermal growth factor, 0.2 ng/mL; optional: gentamicin, 10 μg/mL and amphotericin B, 0.25 μg/mL. All reagents were obtained from Cascade Biologics, Portland, Oreg., USA. The keratinocytes were used for experiments in the fifth or sixth passage.
HEKn cells in passage 6 were split and resuspended to 18500 cells/ml in medium 154 (Cascade Biologics) supplemented with 1% (v/v) human keratinocyte growth supplement (HKGS; Cascade Biologics, no antibiotics added). Cell suspension (0.5 ml) was added to each well in a 24 well plate (Nunc Multidishes Nunclon, Sigma Aldrich, Stockholm, Sweden) and incubated at 37° C., 5% CO2. The medium was replaced every second day by fresh 154 medium supplemented with HKGS (no antibiotics added) until cells had grown confluent.
The compounds to be tested (for example: mBBr, SDS, CDNB, nonanoic acid, HCA, oxazolone were purchased from Sigma Aldrich, qBBr, dBBr, glyoxal, and formaldehyde were obtained from Merck-Schuchardt, Darmstadt, Germany) were diluted in DMSO (Sigma Aldrich, Stockholm, Sweden) to final concentrations of 50 mM, 5 mM and 0.5 mM. These stock solutions were prepared fresh each time the experiment was performed. Alternatively, the mixture, solution, formulation, etc. can be used after dilution/dissolving in DMSO (to test the combined effects of the compounds in that particular preparation).
1) Cell preparation just prior to starting the experiment: the medium in the cell culture plate was replaced by 250 μl fresh Medium 154 (Cascade Biologics) supplemented with HKGS (1% (v/v) human keratinocyte growth supplement (HKGS; Cascade Biologics)) and the cells are kept at 37° C., 5% CO2.
2) Preparation of test compound in medium: 245 μl Medium 154 was added to 0.5 ml microtubes and preheated to 37° C. (waterbath). 5 μl of stock solution of compound was added to the microtubes containing preheated medium. These solutions were then added immediately to the cells in the 24-well plate.
3) The solutions in the microtubes (i.e. 250 μl medium+test compound) were added to each plate. The final concentration of each compound in the test was thus 0.5 mM, 0.05 mM, and 0.005 mM. The plate containing cells and test compounds was incubated for 24 hours at 37° C., 5% CO2.
4A) Each well was examined with a light microscope to determine the blebbing response (a Nikon TE300 inverted microscope) coupled to a digital camera.

[2] = system: serum amyloid P component (SAP); assay: Serum amyloid P component (SAP) in sera of mice exposed to sensitizers; assay type: in vivo; settings: sera of mice exposed to sensitizer
[3] = system: anti-nuclear antibodies (ANA); assay: Anti-nuclear antibodies (ANA) in sera of mice topically exposed to haptens; assay type: in vivo; settings: topical exposure
[4] = system: K5 and K14 in blebs from human keratinocytes; assay: Keratin content of blebs released from keratinocytes (Western blot); assay type: cell-based; settings: blebs from hapten-treated keratinocytes
Experimental: The quantification of the blebbing response was also made by observing: the amount of released protein (e.g. K5 and K14) through SDS-PAGE and western blots. Blebs were collected and lysed as described in example 4. SDS-PAGE: The samples were diluted (Blebs: 46 μg, 30 μl for blotting and 29.2 μg, 40 μl for SDS-PAGE. K14 and K5: 0.2 μg, 5 μl) with XT Sample Buffer 4X (BioRad, Hercules, Calif., USA) and milli-Q water. 1 μl DTT (2M) was added to each sample followed by heating at 96° C. for 2 minutes before application on the gel. Electrophoresis program: 200V, 400 mA, 50 W, 50 min. MOPS Running Buffer. The gels were fixed, scanned for fluorescence (excitation 480 nm, emission 530 nm) and coomassie stained (Bio-Safe™ Coomassie, BioRad, Hercules, Calif., USA). The gels are then used for quantitative measurement of proteins. Western Blot: Unfixed gels were blotted onto polyvinyldifluoride membranes (PVDF Ready-gel Blotting Sandwiches, 7×8.5 cm, BioRad, Hercules, Calif., USA). Blotting program: 70 V, 400 mA, 50 W, 30 min. Transfer buffer. Novex XCell II™ Blot Module (E19051, Novex, San Diego, Calif., USA). […]
The blebs in the supernatant was lysed with 4× freeze-thaw cycles using ethanol, dry ice and a 37° C. water bath. […] Total protein concentration was determined with Pierce BCA Protein Assay. […]

human skin excerpts = assay: Labeling of human skin excerpts by caged haptens
Source text: The first step is that the molecules come into contact with the skin (the stratum corneum). Many of the reactive molecules react in the stratum corneum, something that can be seen in experiments with human skin excerpts and the caged (mBBr and dBBr) haptens. However, a significant proportion of the molecules penetrate further down to the suprabasal layers of the epidermis but also the follicular pathway is of importance for bringing xenobiotics into the skin. It is likely that the penetration is due both to the acidic pH of the stratum corneum (the molecules react more slowly when the pH is low), but also because many of the available groups have reacted. In the suprabasal layers, the haptens have a hard time penetrating the cells, as the cornification of the cells creates a thick, relatively impermeable envelope around the suprabasal cells. Consequently, the haptens penetrate down to the basal layer. Here, the cell membrane is much thinner and more fluidic and the molecules can thus enter the basal cells.

cysteine 54 (C54) of K5 = target: T1, cysteine 54 (C54) of K5 (Homo sapiens, UniProt P13647); assay: Haptenation site by LTQ-FT-ICR mass spectrometry; settings: full-thickness human skin and living human keratinocytes
T1 construct: endogenous in cells; host or cells: intact full-thickness human skin; living (primary) human keratinocytes
T1 sequence (P13647 1-590): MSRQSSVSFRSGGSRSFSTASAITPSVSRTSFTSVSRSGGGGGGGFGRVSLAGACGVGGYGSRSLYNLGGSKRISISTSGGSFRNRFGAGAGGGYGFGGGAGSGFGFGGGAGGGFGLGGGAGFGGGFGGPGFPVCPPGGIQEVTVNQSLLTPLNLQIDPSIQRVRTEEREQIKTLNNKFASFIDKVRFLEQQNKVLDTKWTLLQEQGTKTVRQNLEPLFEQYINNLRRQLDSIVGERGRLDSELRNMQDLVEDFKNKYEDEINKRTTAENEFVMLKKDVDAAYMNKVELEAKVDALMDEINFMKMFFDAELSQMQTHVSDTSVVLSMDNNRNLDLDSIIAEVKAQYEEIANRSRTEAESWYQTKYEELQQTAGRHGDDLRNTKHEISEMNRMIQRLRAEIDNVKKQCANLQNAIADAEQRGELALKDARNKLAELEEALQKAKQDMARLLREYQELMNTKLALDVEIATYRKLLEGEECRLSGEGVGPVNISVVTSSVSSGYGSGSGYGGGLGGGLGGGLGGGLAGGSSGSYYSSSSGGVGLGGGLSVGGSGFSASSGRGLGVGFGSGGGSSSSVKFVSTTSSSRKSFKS
T1 sequence (P02533 1-472 partner): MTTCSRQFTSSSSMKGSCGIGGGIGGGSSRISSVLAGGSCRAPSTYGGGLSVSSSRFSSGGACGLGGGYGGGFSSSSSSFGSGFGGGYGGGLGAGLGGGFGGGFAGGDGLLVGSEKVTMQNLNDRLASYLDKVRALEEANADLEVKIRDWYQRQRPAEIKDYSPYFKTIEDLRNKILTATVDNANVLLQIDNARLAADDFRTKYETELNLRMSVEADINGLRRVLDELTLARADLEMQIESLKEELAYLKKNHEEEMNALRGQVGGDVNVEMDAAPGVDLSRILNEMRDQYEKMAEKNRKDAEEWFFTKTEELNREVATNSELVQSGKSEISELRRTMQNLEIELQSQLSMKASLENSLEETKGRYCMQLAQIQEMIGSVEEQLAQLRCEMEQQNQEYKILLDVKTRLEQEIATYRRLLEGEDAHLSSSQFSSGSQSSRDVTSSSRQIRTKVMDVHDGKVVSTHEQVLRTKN
Source text: The second step is that the molecules enter the basal cells. Since the extracellular environment is oxidizing, extracellular cysteines are mostly oxidized to disulfides. However, it is in the reduced, intracellular environment that the haptens find reduced thiols to react with. Once inside the cells the compounds will react with available (i.e. not sterically hindered), reduced cysteines (thiol groups). […] Furthermore, it was identified that one of the cysteines that the haptens react with is cysteine 54 (C54) of K5. […] One of the reasons for intense reaction at C54 is presumably its high effective concentration just inside the cell membrane. It is vital in the life of an organism to fail-safe its epithelial integrity, and the bundling of the KIFs ensures a high effective local concentration of the peptide stretch containing C54, ensuring strong welding of the cell to its surroundings. Amino acids nearby in the primary sequence are consequently also located within physical reach of an incoming compound in similarly high effective concentrations. Looking at blebbing brought on by amine- and arginine-reactive compounds from this angle, the residues K71 and R72 are the closest candidates in the primary sequence.

[5] = HEKn cells, tested at 0.5, 0.05 and 0.005 mM
[6] = HEKn cells, time 24 h and concentration 0.5 mM, visual inspection, blind
[7] = compound added to human keratinocytes

Structure (SMILES)	Blebbing response of human keratinocytes (induced or not) [1]	Level of serum amyloid P component (SAP) [2]	Concentration at which the cells produced blebs after 24 hours [1, 5]	Amount of blebs [1, 6]	Blebbing response of human keratinocytes (induced or not) [1, 7]	Level of anti-nuclear antibodies (ANA) in sera [3]	Sensitizing potential, collective analysis of the three blebbing endpoints [1]	Keratins (K5 and K14) in blebs [4]	further results
C=O [formaldehyde]	provoke a blebbing response								
CCCCCCC(C=O)=Cc1ccccc1 [HCA, α-hexyl cinnamic aldehyde]	did not induce blebbing at the tested concentrations								
O=[N+]([O-])c1ccc(Cl)c([N+](=O)[O-])c1 [CDNB, 1-chloro 2,4 dinitrobenzene]		increased levels	500 µM	++	provoke a blebbing response	increased levels			Time to blebbing ([1]; HEKn cells, inspected at 1.5, 2.5 and 24 h, tested at 0.5, 0.05 and 0.005 mM): 24 h; Sensitizing potential, collective analysis of the three blebbing endpoints ([1]; time to blebbing, concentration, amount of blebs combined): strong sensitizers
CCO/C=C1\N=C(c2ccccc2)OC1=O [oxazolone]	provoke a blebbing response					increased levels	extreme sensitizer	contain K5 and K14; also recorded: contain keratins	Amount of blebs [1]: +++; Time to blebbing [1]: 1.5 h
O=CC=O [glyoxal]		increased levels	500 µM	+	provoke a blebbing response	increased levels	moderate sensitizer	contain K5 and K14; also recorded: contain keratins	
Cc1c(C)n2c(CBr)c(C)c(=O)n2c1=O [mBBr, monobromobimane]						increased levels			Labeling of cells in the basal layer (human skin excerpts): cells in the basal layer are labeled; Covalent modification of C54 of K5 (cysteine 54 (C54) of K5): modify C54 of K5; also recorded: modifies C54 of K5
